The values that follow come from patent EP1705169A2, “Triphenylalkene derivatives and their use as selective estrogen receptor modulators” (priority 1999, dated 2001).

Read-outs that look alike come from different tables or passages of the source.

Assay [1] deals with MCF-7 cells. In words: cells. The settings on record: for inhibition at 1 µM / Emax / cytotoxicity at 10 µM: Homo sapiens, MCF7, 96 h; for inhibition at 1 µM: read-out: Antagonism at 1 µM (% of full antagonism); for Emax: read-out: Maximal Agonism (% of E2); for Kill of MCF-7 cells (in words): highest investigated concentration (10 µM); for Hormonal activity (in words): summary statement referring to Table 2; for Estrogenic and antiestrogenic action (in words): summary statement referring to Tables 2, 3 and 4. How it is done: For experiments involving hormone or anti-hormone treatment, the cells in exponential growth phase were precultivated in the absence of estradiol for one day. […] After the incubation period the medium was removed. The exposure to study drugs was started immediately by adding fresh medium with 5 % stripped serum. Half of the cells were grown with estradiol, half without estradiol. Study compounds (dissolved in ethanol in 0.01 M concentration and diluted with the growth medium as appropriate) were added. The final concentrations of the compounds were 1,10, and 100 nM, and 1 and 10 µM. The cells were incubated for four days.
This method allows evaluation of estrogenicity based on the ability of the compounds to stimulate the growth of the estrogen-dependent cells in the absence of estradiol. Estrogenicity was estimated by comparing the maximal growth stimulus (at any concentration) of study compound as per cent from growth stimulus by estradiol (100 % stimulus). […] At high concentrations molecules may also show toxicity. Toxicity was estimated as the fraction of dead cells (i.e. 100 % means that all cells have died during the exposure).

Assay [2] relates to immature female rats. In words: 3 day uterotropic assay in immature female rats (given alone and with estradiol). The settings on record: for Estrogen antagonism (% inhibition of estradiol) Given with estradiol / Uterotropic effect (% of estradiol) Given without estradiol: 3 days, immature female rats. Format: in vivo. On the procedure:
The values are given at two dose levels, low i.e. 3―5 mg/kg and high i.e. 10―50 mg/kg. Estrogenic activity can be estimated also after a 4 weeks' treatment of ovariectomized rats based on the uterine size.

Setting [3] is: read-out: Maximal Cell Kill (% fraction of dead cells), With estradiol (E2), toxicity at 10 µmol/l, 100 = all cells dead.
Where [4] appears, read: read-out: Maximal Cell Kill (% fraction of dead cells), Without estradiol (E2), toxicity at 10 µmol/l, 100 = all cells dead.

As to `OCCOc1ccc(/C(=C(/CCCl)c2ccccc2)c2ccccc2)cc1` [FC-1271a, 2-[4-(4-chloro-1,2-diphenyl-but-1-enyl)phenoxy]ethanol, reference compound], in assay [1], the inhibition at 1 µM is 21% and the Emax is 23%. Moreover, the cytotoxicity at 10 µM in assay [1] (setting [3]) stood at 80%. For the same compound, the cytotoxicity at 10 µM in assay [1] (setting [4]) was found to be 50%.

Regarding `CCCCN(C)C(=O)CCCCCCCCCC[C@@H]1Cc2cc(O)ccc2[C@H]2CC[C@]3(C)[C@@H](O)CC[C@H]3[C@H]12` [ICI 164,384, reference compound], in assay [1], the inhibition at 1 µM was 100% and the Emax was determined as 9%. The cytotoxicity at 10 µM in assay [1] (read-out: Maximal Cell Kill (% fraction of dead cells)) worked out at 100%.

In the case of `CN(C)CCOc1ccc(/C(=C(/CCCl)c2ccccc2)c2ccc(F)cc2)cc1` [No. 1, (E)-(2-{4-[4-Chloro-1-(4-fluorophenyl)-2-phenylbut-1-enyl]phenoxy}ethyl)-dimethylamine], the “Estrogenic action in vivo (in words)” value in assay [2] (Table 3) is “weak estrogen in vivo”. For the same compound, in assay [2] (dose 3–5 mg/kg), the “Estrogen antagonism (% inhibition of estradiol) Given with estradiol” value is 26 % inhibition of estradiol and the “Uterotropic effect (% of estradiol) Given without estradiol” value was 42 % of estradiol. Moreover, in assay [2] (dose 10–50 mg/kg), the “Estrogen antagonism (% inhibition of estradiol) Given with estradiol” value is listed as 31 % inhibition of estradiol and the “Uterotropic effect (% of estradiol) Given without estradiol” value is 74 % of estradiol. In assay [1], the inhibition at 1 µM is 8%, the Emax was 1% and the “Hormonal activity (in words)” value is listed as “weak hormonal activity”. Further, the cytotoxicity at 10 µM in assay [1] (setting [3]) was 100%. Besides, the cytotoxicity at 10 µM in assay [1] (setting [4]) was determined as 100%. In assay [1] (Table 2), the “Estrogenic action in vitro (in words)” value is given as “no estrogenic action in vitro” and the “Kill of MCF-7 cells (in words)” value is given as “kill MCF-7 cells (human breast cancer cells) effectively”.

Turning to `CN(C)CCOc1ccc(/C(=C(\CCCl)c2ccccc2)c2ccc(F)cc2)cc1` [No. 2, (Z)-(2-{4-[4-Chloro-1-(4-fluorophenyl)-2-phenylbut-1-enyl]phenoxy}ethyl)-dimethylamine], the inhibition at 1 µM in assay [1] amounted to 29%. For the same compound, in assay [1], the Emax is 100%. The cytotoxicity at 10 µM in assay [1] (setting [3]) turned out to be 100%; in assay [1] (setting [4]) it was 32%.

For `CN(C)CCOc1ccc(/C(=C(/CCCl)c2ccc(Cl)cc2)c2ccc(Cl)cc2)cc1` [No. 4, (E)-(2-{4-[4-Chloro-1,2-bis(4-chlorophenyl)but-1-enyl]phenoxy}ethyl)-dimethylamine], in assay [1], the inhibition at 1 µM was 10% and the Emax amounted to 10%. Also, the cytotoxicity at 10 µM in assay [1] (setting [3]) turned out to be 100%. Besides, the cytotoxicity at 10 µM in assay [1] (setting [4]) stood at 90%.

With `CN(C)CCOc1ccc(/C(=C(\CCCl)c2ccc(Cl)cc2)c2ccc(Cl)cc2)cc1` [No. 5, (Z)-(2-{4-[4-Chloro-1,2-bis(4-chlorophenyl)but-1-enyl]phenoxy}ethyl)-dimethylamine], in assay [1], the inhibition at 1 µM is 31% and the Emax was determined as 11%. In addition, the cytotoxicity at 10 µM in assay [1] (setting [3]) was 100%. In addition, in assay [1] (setting [4]), the cytotoxicity at 10 µM was 100%.

Take `OCCOc1ccc(/C(=C(/CCCl)c2ccccc2)c2ccc(F)cc2)cc1` [No. 8, (E)-2-{4-[4-Chloro-2-phenyl-1-(4-fluorophenyl)but-1-enyl]phenoxy} ethanol]: in assay [1], the inhibition at 1 µM stood at 92% and the Emax was 31%. Also, in assay [1] (setting [3]), the cytotoxicity at 10 µM worked out at 52%. In addition, the cytotoxicity at 10 µM in assay [1] (setting [4]) was determined as 2%.

For `OCCOc1ccc(/C(=C(/CCCl)c2ccc(Cl)cc2)c2ccc(Cl)cc2)cc1` [No. 9, (E)-2-{4-[4-Chloro-1,2-bis(4-chlorophenyl)but-1-enyl]phenoxy}ethanol], in assay [1], the inhibition at 1 µM stood at 9% and the Emax worked out at 14%. Also, the cytotoxicity at 10 µM in assay [1] (setting [3]) was 62%. Moreover, in assay [1] (setting [4]), the cytotoxicity at 10 µM came out at 45%.

For the compound `OCCOc1ccc(C(=C(CCCl)c2ccccc2)c2ccc(OCCO)cc2)cc1` [No. 16, 2-(4-{4-Chloro-1-[4-(2-hydroxyethoxy)phenyl]-2-phenyl-but-1-enyl}phenoxy)-1-ethanol], in assay [1], the inhibition at 1 µM is 23%, the Emax is 22% and the “Hormonal activity (in words)” value is reported as “weak hormonal activity”. Besides, the cytotoxicity at 10 µM in assay [1] (setting [3]) is 96%. Besides, in assay [1] (setting [4]), the cytotoxicity at 10 µM amounted to 90%. For the same compound, the “Kill of MCF-7 cells (in words)” value in assay [1] (Table 2) is on record as “kill MCF-7 cells (human breast cancer cells) effectively”.

With `OCCOc1ccc(/C(=C(/CCCl)c2ccccc2)c2ccc(Cl)cc2)cc1` [No. 17, (E)-2-{4-[4-Chloro-2-phenyl-1-(4-chlorophenyl)but-1-enyl]phenoxy} ethanol], in assay [1], the inhibition at 1 µM is 17% and the Emax was 0%. Further, in assay [1] (setting [3]), the cytotoxicity at 10 µM was 38%. In addition, the cytotoxicity at 10 µM in assay [1] (setting [4]) is 44%.

In the case of `OCCOc1cccc(/C(=C(/CCCl)c2ccccc2)c2ccccc2)c1` [No. 18, (Z)-2-[3-(4-Chloro-1,2-diphenyl-but-1-enyl)phenoxy]ethanol], in assay [1], the inhibition at 1 µM amounted to 1%; the “Estrogenic and antiestrogenic action (in words)” value is “weak estrogenic and no antiestrogenic action”. In addition, the cytotoxicity at 10 µM in assay [1] (setting [3]) stood at 40%. The cytotoxicity at 10 µM in assay [1] (setting [4]) is 10%.

For the compound `CN(C)CCOc1ccc(/C(=C(/CCCl)c2ccc(Cl)cc2)c2ccccc2)cc1` [No. 23, (Z)-(2-{4-[4-Chloro-2-(4-chlorophenyl)-1-phenylbut-1-enyl]phenoxy}ethyl)-dimethylamine], in assay [1], the inhibition at 1 µM stood at 5% and the Emax came to 14%. For the same compound, in assay [1] (setting [3]), the cytotoxicity at 10 µM turned out to be 93%. In addition, the cytotoxicity at 10 µM in assay [1] (setting [4]) is 89%.

In the case of `CN(C)CCOc1ccc(/C(=C(\CCCl)c2ccc(Cl)cc2)c2ccccc2)cc1` [No. 24, (E)-(2-{4-[4-Chloro-2-(4-chlorophenyl)-1-phenylbut-1-enyl]phenoxy}ethyl)-dimethylamine], in assay [1], the inhibition at 1 µM is 4% and the Emax amounted to 46%. For the same compound, in assay [1] (setting [3]), the cytotoxicity at 10 µM was found to be 98%. Further, in assay [1] (setting [4]), the cytotoxicity at 10 µM was 89%.

On to `CN(C)CCOc1ccc(/C(=C(/CCCl)c2ccc(F)cc2)c2ccccc2)cc1` [No. 25, (Z)-(2-{4-[4-Chloro-2-(4-fluorophenyl)-1-phenylbut-1-enyl]phenoxy}ethyl)-dimethylamine], for which, in assay [1], the inhibition at 1 µM amounted to 6%; the Emax was found to be 17%; the “Estrogenic and antiestrogenic action (in words)” value is “weak estrogenic and no antiestrogenic action”. Moreover, the cytotoxicity at 10 µM in assay [1] (setting [3]) stood at 27%. For the same compound, the cytotoxicity at 10 µM in assay [1] (setting [4]) was 42%.

As to `COc1ccc(/C(=C(\CCCl)c2ccc(Cl)cc2)c2ccc(OCCN(C)C)cc2)cc1` [No. 26, (Z)-(2-{4-[4-Chloro-2-(4-chlorophenyl)-1-(4-methoxyphenyl)but-1-enyl]phenoxy}-ethyl)dimethylamine], in assay [1], the inhibition at 1 µM was 11%, the Emax was determined as 0% and the “Hormonal activity (in words)” value is listed as “weak hormonal activity”. Also, in assay [1] (setting [3]), the cytotoxicity at 10 µM turned out to be 98%. Further, the cytotoxicity at 10 µM in assay [1] (setting [4]) turned out to be 97%. For the same compound, the “Kill of MCF-7 cells (in words)” value in assay [1] (Table 2) is listed as “kill MCF-7 cells (human breast cancer cells) effectively”.

In the case of `COc1ccc(/C(=C(/CCCl)c2ccc(Cl)cc2)c2ccc(OCCN(C)C)cc2)cc1` [No. 27, (E)-(2-{4-[4-Chloro-2-(4-chlorophenyl)-1-(4-methoxyphenyl)but-1-enyl]phenoxy}-ethyl)dimethylamine], in assay [1], the inhibition at 1 µM was found to be 5%, the Emax was 0% and the “Hormonal activity (in words)” value is listed as “weak hormonal activity”. Also, in assay [1] (setting [3]), the cytotoxicity at 10 µM amounted to 100%. Further, the cytotoxicity at 10 µM in assay [1] (setting [4]) turned out to be 99%. For the same compound, in assay [1] (Table 2), the “Kill of MCF-7 cells (in words)” value is given as “kill MCF-7 cells (human breast cancer cells) effectively”.

Consider `OCCOc1ccc(/C(=C(/CCCl)c2ccccc2)c2cccc(O)c2)cc1` [No. 34, (E)-3-{4-Chloro-1-[4-(2-hydroxyethoxy)phenyl]-2-phenyl-but-1-enyl}-phenol], for which the inhibition at 1 µM in assay [1] worked out at 0%. Moreover, the Emax in assay [1] is 0%. The cytotoxicity at 10 µM in assay [1] (setting [3]) and in assay [1] (setting [4]) was 0% throughout.

With `COc1ccc(/C(=C(\CCCl)c2ccc(Cl)cc2)c2ccc(OCCO)cc2)cc1` [No. 37, (Z)-2-{4-[4-Chloro-2-(4-chlorophenyl)-1-(4-methoxyphenyl)but-1-enyl]-phenoxy} ethanol], in assay [1], the inhibition at 1 µM was found to be 0% and the Emax was determined as 4%. For the same compound, the cytotoxicity at 10 µM in assay [1] (setting [3]) amounted to 41%. The cytotoxicity at 10 µM in assay [1] (setting [4]) worked out at 39%.

As for `OCCOc1ccc(/C(=C(/CCCl)c2ccc(O)cc2)c2ccccc2)cc1` [No. 42, (Z)-4-{1-(2-Chloroethyl)-2-[4-(2-hydroxyethoxy)phenyl]-2-phenylvinyl}phenol], in assay [1], the inhibition at 1 µM worked out at 13% and the Emax stood at 9%. In addition, in assay [1] (setting [3]), the cytotoxicity at 10 µM is 54%. Also, the cytotoxicity at 10 µM in assay [1] (setting [4]) stood at 23%.

Take `OCCOc1ccc(/C(=C(\CCCl)c2ccc(O)cc2)c2ccccc2)cc1` [No. 43, (E)-4-{1-(2-Chloroethyl)-2-[4-(2-hydroxyethoxy)phenyl]-2-phenylvinyl}phenol]: in assay [1], the inhibition at 1 µM was determined as 6% and the Emax is 78%. In assay [1] (setting [3]), the cytotoxicity at 10 µM worked out at 22%. In assay [1] (setting [4]), the cytotoxicity at 10 µM is 80%.
